Laboratory results as given in patent US9255257B2, “PmST1 mutants for chemoenzymatic synthesis of sialyl lewis X compounds” (THE REGENTS OF THE UNIVERSITY OF CALIFORNIA, priority 2011, dated 2016).

Key:
[1] = biological target: Pasteurella multocida α2-3-sialyltransferase 1 (PmST1), wild type (WT), SEQ ID NO: 13 (Pasteurella multocida, UniProt Q15KI8); settings: apparent, α2-3-sialidase; cited from earlier work
[2] = biological target: Pasteurella multocida PmST1 mutant D141A (Pasteurella multocida, UniProt Q15KI8, D141A); test: α2-3-sialidase activity, Neu5Acα2-3LacβMU as substrate; assay type: biochemical; set-up: previously obtained mutant (Ni et al. 2006); settings: apparent, MES pH 5.5, 37° C., 60 min
Description: (§1) Kinetic Assays. […] The apparent kinetic parameters were obtained by fitting the experimental data (the average values of duplicate assay results) into the Michaelis-Menten equation using Grafit 5.0.
(§2) All the sialidase and α2-3-sialyltransferase assays were performed in an HPLC system. Reactions were stopped by adding 10 μL of ethanol. After necessary dilutions were performed to adjust the concentrations of the fluorescent-labeled compounds, the samples were then kept on ice until aliquots of 8 μL were injected and analyzed by a Shimadzu LC-6AD system equipped with a membrane on-line degasser, a temperature control unit, and a fluorescence detector (Shimadzu RF-10AXL). A reverse-phase Premier C18 column (250×4.6 mm i.d., 5 μm particle size, Shimadzu) protected with a C18 guard column cartridge was used. The mobile phase was 25% acetonitrile. The fluorescent compounds LacβMU and Neu5Acα2-3LacβMU were detected by excitation at 325 nm and emission at 372 nm.

[3] = biological target: Pasteurella multocida PmST1 mutant H311A (Pasteurella multocida, UniProt Q15KI8, H311A); test: as above; assay type: biochemical; set-up: previously obtained mutant (Ni et al. 2006); settings: result in words
Description: as §1, §2

[4] = biological target: Pasteurella multocida PmST1 double mutant E271F/R313Y of SEQ ID NO: 13 (E247F/R289Y of Δ24PmST1, SEQ ID NO: 11) (Pasteurella multocida, UniProt Q15KI8, E271F/R313Y); test: as above; assay type: biochemical; settings: apparent, MES pH 5.5, 37° C., 20 min
Description: (§3) Site-directed mutagenesis. Site-directed mutagenesis was carried out using the QuikChange multi-site-directed mutagenesis kit from Stratagene according to the manufacturer's protocol. The primers used were 5′-[…] -3′ (SEQ ID NO:32) for E271F and 5′-[…]-3′ (SEQ ID NO:33) for R313Y. The sites of mutations are underlined.
(§4) Protein Expression and Purification. The plasmids containing the mutant genes were transformed into E. coli BL21 (DE3). The E. coli cells were cultured in LB-rich media (10 g L^−1 tryptone, 5 g L^−1 yeast extract, and 10 g L^−1 NaCl) supplemented with ampicillin (100 μg mL^−1). Overexpression of the mutant proteins was achieved by adding 0.1 mM of isopropyl-1-thio-β-D-galactopyranoside (IPTG) to the E. coli culture when its OD600 nm reached 0.8. The incubation of the induced culture was performed at 37° C. for 3 h with vigorous shaking at 250 rpm in a C25KC incubator shaker (New Brunswick Scientific, Edison, N.J.).
(§5) His6 (SEQ ID NO:34) tagged mutant proteins were purified from the cell lysate. To obtain the cell lysate, the cell pellet harvested by centrifugation at 4000 rpm for 2 h was resuspended in 20 mL (for cells obtained from one liter culture) of lysis buffer (pH 8.0, 100 mM Tris-HCl containing 0.1% Triton X-100). To lyse the cells, lysozyme (50 μg mL^−1) and DNaseI (3 μg mL^−1) were then added to the resuspended cells followed by shaking at 37° C. for 60 min. The cell lysate was obtained as the supernatant after centrifugation at 11,000 rpm for 20 min. […]
as §2, with “Reactions were stopped by adding 10 μL of ethanol.” left out, “A reverse-phase Premier C18 column (250×4.6 mm i.d., 5 μm particle size, Shimadzu) protected with a C18 guard column cartridge was used. The mobile phase was 25% acetonitrile.” left out

[5] = biological target: Pasteurella multocida PmST1 mutant E271F of SEQ ID NO: 13 (E247F of Δ24PmST1, SEQ ID NO: 7) (Pasteurella multocida, UniProt Q15KI8, E271F); test: as above; assay type: biochemical; settings: apparent, MES pH 5.5, 37° C., 1 min
Description: as §3, §4, §5
as §2, with “Reactions were stopped by adding 10 μL of ethanol.” left out, “A reverse-phase Premier C18 column (250×4.6 mm i.d., 5 μm particle size, Shimadzu) protected with a C18 guard column cartridge was used. The mobile phase was 25% acetonitrile.” left out

[6] = biological target: Pasteurella multocida PmST1 mutant R313Y of SEQ ID NO: 13 (R289Y of Δ24PmST1, SEQ ID NO: 9) (Pasteurella multocida, UniProt Q15KI8, R313Y); test: as above; assay type: biochemical; settings: apparent, MES pH 5.5, 37° C., 25 min
Description: as §3, §4, §5
as §2, with “Reactions were stopped by adding 10 μL of ethanol.” left out, “A reverse-phase Premier C18 column (250×4.6 mm i.d., 5 μm particle size, Shimadzu) protected with a C18 guard column cartridge was used. The mobile phase was 25% acetonitrile.” left out

[7] = biological target: Pasteurella multocida PmST1 mutant M144H of SEQ ID NO: 13 (M120H of Δ24PmST1, SEQ ID NO: 5) (Pasteurella multocida, UniProt Q15KI8, M144H); test: as above; assay type: biochemical; settings: apparent, MES pH 5.5, 37° C., 15 min
Description: (§6) Site-directed mutagenesis, expression and purification of PmST1 mutants. Site-directed mutagenesis was performed using the QuikChange multi-site-directed mutagenesis kit from Stratagene according to the manufacturer's protocol. The primers used were 5′-[…]-3′ (SEQ ID NO:35) for M144D; 5′-[…]a[…] -3′ (SEQ ID NO:36) for M144H; 5′-[…]-3′ (SEQ ID NO:37) for A35D; and 5′-[…]-3′ (SEQ ID NO:38) for A35H. The expression and purification of the mutants were performed as previously described for the WT PmST1 .
(§7) Kinetics of the α2-3-sialidase activity of PmST1 mutants. The reactions were performed in duplicate in a total volume of 10 μL at 37° C. for 60 min (M144D) or 15 min (M144H) in MES buffer (100 mM, pH 5.5) containing Neu5Acα2-3LacβMU (0.4, 1, 2, 4, 10, 20, 40 and 60 mM) and an enzyme (M144H, 1.36 mg mL^−1 or M144D, 1.05 mg mL^−1). Sample treatment after the reaction and analysis were carried out by HPLC similar to that described above for the α2-3-sialyltransferase assays.

[8] = biological target: Pasteurella multocida PmST1 mutant M144D of SEQ ID NO: 13 (M120D of Δ24PmST1, SEQ ID NO: 3) (Pasteurella multocida, UniProt Q15KI8, M144D); test: as above; assay type: biochemical; settings: apparent, MES pH 5.5, 37° C., 60 min
Description: as §6, §7

Compound: CC(=O)N[C@H]1[C@H]([C@H](O)[C@H](O)CO)O[C@@](O[C@H]2[C@@H](O)[C@@H](CO)O[C@@H](O[C@H]3[C@H](O)[C@@H](O)[C@H](Oc4ccc5c(C)cc(=O)oc5c4)O[C@@H]3CO)[C@@H]2O)(C(=O)O)C[C@@H]1O [Neu5Acα2-3LacβMU]
- Km [1]: 24 mM
- kcat [2]: (1.9 ± 0.1) × 10^−2 s^−1
- kinetics of the α2-3-sialidase activity [3]: too low to obtain the kinetic data
- kcat [4]: 0.83 ± 0.08 s⁻¹
- kcat [5]: 0.92 ± 0.04 s⁻¹
- kcat [6]: 0.18 ± 0.01 s⁻¹
- kcat [7]: (2.7 ± 0.2) × 10^−2 s^−1
- kcat [8]: (3.5 ± 0.1) × 10^−2 s^−1
